From patent US4663327A, “1-heteroaryl-4-aryl-pyrazolin-5-ones” (priority 1984, dated 1987) come the findings set out here.

Converted amounts (≈) assume the structure as drawn.

In the first test the test system is Cochliobolus sativus. As to the kind of experiment: Cochliobolus sativus test (barley)/protective. The note with it: sprayed, evaluation 7 days after inoculation. The test is classed as in vivo. As to the method: Cochliobolus sativus test (barley)/protective Solvent: 100 parts by weight of dimethylformamide Emulsifier: 0.25 parts by weight of alkylaryl polyglycol ether To produce a suitable preparation of active compound, 1 part by weight of active compound is mixed with the stated amounts of solvent and emulsifier, and the concentrate is diluted with water to the desired concentration. To test for protective activity, young plants are sprayed with the preparation of active compound until dew-moist. After the spray coating has dried on, the plants are sprayed with a conidia suspension of Cochliobolus sativus. The plants remain in an incubation cabinet for 48 hours at 20° C. and 100% relative atmospheric humidity. The plants are placed in a greenhouse at a temperature of about 20° C. and a relative atmospheric humidity of about 80%. Evaluation is carried out 7 days after the inoculation.
In the case of `Cc1ccccc1-c1c[nH]n(-c2ccccn2)c1=O` [Example 21], the protective activity result was “clearly superior activity compared with the prior art”.

The next test deals with Polyporus versicolor. Nature of the test: MIC on fungi in agar. The note with it: Trametes versicolor, 336 h.
Protocol: (§1) After storage for 2 weeks at 28° C. and 60 to 70% relative atmospheric humidity, the MIC is determined.
For the compound `O=c1c(-c2ccccc2)c[nH]n1-c1ccccn1` [Example 4, 1-pyrid-2-yl-4-phenyl-pyrazolin-5-one], the MIC came out at 35 µg/mL (≈ 148 µM).
For the compound `Cc1ccccc1-c1c[nH]n(-c2ccccn2)c1=O` [Example 21], the MIC amounted to 7.5 µg/mL (≈ 29.8 µM).
In turn, `Cc1ccc(-c2c[nH]n(-c3ccccn3)c2=O)cc1` [Example 23] yielded an MIC of 3.5 µg/mL (≈ 13.9 µM).
In turn, `O=c1c(-c2ccc(F)cc2)c[nH]n1-c1ncccn1` [Example 83] came in with an MIC of 35 µg/mL (≈ 137 µM).

The test system of a further test is Drechslera graminea. As to the kind of experiment: Drechslera graminea test (barley)/seed treatment. In kind it is in vivo, Drechslera graminea (syn. Helminthosporium gramineum). Particulars: seed dry dressing, about 3 weeks after sowing. The protocol: Drechslera […] (barley)/seed treatment (syn. Helminthosporium gramineum) The active compounds are used as dry dressings. These are prepared by extending the paticular active compound with a ground mineral to give a finely pulverulent mixture, which ensures uniform distribution on the seed surface. To apply the dressing, the infected seed is shaken with the dressing in a closed glass flask for 3 minutes. The seed is embedded in sieved, moist standard soil and is exposed to a temperature of 4° C. in closed Petri dishes in a refrigerator for 10 days. Germination of the barley, and possibly also of the fungus spores, is thereby initiated. 2 batches of 50 grains of the pregerminated barley are subsequently sown 3 cm deep in standard soil and are cultivated in a greenhouse at a temperature of about 18° C., in seedboxes which are exposed to light for 15 hours daily. About 3 weeks after sowing, the plants are evaluated for symptons of stripe disease.
Take `Cc1ccccc1-c1c[nH]n(-c2ccccn2)c1=O` [Example 21]: the “activity, symptoms of stripe disease” value was “clearly superior activity compared with the prior art”.

The test system of a further test is Phytophthora infestans.
Test: not given
The test is classed as in vivo. The note with it: tomato, sprayed, evaluation 3 days after inoculation.
For `O=c1c(-c2cc(C(F)(F)F)ccc2Cl)c[nH]n1-c1ncccn1` [Example 102], the protective activity entry is reported as “clearly superior activity compared with the prior art”.

For another test, the system named is Botrytis cinerea. As to the kind of experiment: Botrytis test (BEAN)/protective. Particulars: sprayed, infected spots on leaves evaluated 3 days after inoculation. The test is classed as in vivo. The protocol: Botrytis test (BEAN)/protective Solvent: 4.7 parts by weight of acetone Emulsifier: 0.3 parts by weight alkyl aryl polyglycol ether To produce a suitable preparation of active compound, 1 pat by weight of active compound is mixed with the stated amounts of solvent and emulsifier, and the concentrate is diluted with water to the desired concentration. To test for protective activity, young plants are sprayed with the preparation of active compound until dripping wet. After the spray coating has dried on, 2 small pieces of agar covered with Botrytis cinerea are placed on each leaf. The inoculated plants are placed in a darkened humidity chamber at 20° C. 3 days after the inoculation, the size of the infected spots on the leaves is evaluated.
For `Cc1ccccc1-c1c[nH]n(-c2ccccn2)c1=O` [Example 21], the protective activity result was “clearly superior activity compared with the prior art”.
As to `O=c1c(-c2cc(C(F)(F)F)ccc2Cl)c[nH]n1-c1ncccn1` [Example 102], the protective activity entry is given as “clearly superior activity compared with the prior art”.

A further test deals with Sclerophoma pityophila. As to the kind of experiment: MIC on fungi in agar. Particulars: Sydowia polyspora, 336 h.
Protocol: as §1
Take `O=c1c(-c2ccccc2)c[nH]n1-c1ccccn1` [Example 4, 1-pyrid-2-yl-4-phenyl-pyrazolin-5-one]: 10 µg/mL (≈ 42.1 µM) was the least that counted as inhibitory (MIC).
Regarding `Cc1ccccc1-c1c[nH]n(-c2ccccn2)c1=O` [Example 21], the MIC came to 35 µg/mL (≈ 139 µM).
Still for that read-out and setting: then `Cc1ccc(-c2c[nH]n(-c3ccccn3)c2=O)cc1` [Example 23], with 20 µg/mL (≈ 79.6 µM); and `O=c1c(-c2ccc(F)cc2)c[nH]n1-c1ncccn1` [Example 83], with 5 µg/mL (≈ 19.5 µM).

The next test deals with Pyricularia oryzae.
Test: not given
The test is classed as in vivo. Particulars: rice, sprayed, disease infestation 4 days after inoculation.
On to `O=c1c(-c2cc(C(F)(F)F)ccc2Cl)c[nH]n1-c1ncccn1` [Example 102], for which the protective activity result is “clearly superior activity compared with the prior art”.

Another test relates to Trichoderma viride. Nature of the test: MIC on fungi in agar. Particulars: 336 h.
Protocol: as §1
For `O=c1c(-c2ccccc2)c[nH]n1-c1ccccn1` [Example 4, 1-pyrid-2-yl-4-phenyl-pyrazolin-5-one], the MIC came to 200 µg/mL (≈ 843 µM).
The same measure, in the same setting: the result for `Cc1ccccc1-c1c[nH]n(-c2ccccn2)c1=O` [Example 21] reads 50 µg/mL (≈ 199 µM).
On the same count and under the same terms, then `Cc1ccc(-c2c[nH]n(-c3ccccn3)c2=O)cc1` [Example 23], with 1000 µg/mL (≈ 3980 µM); and `O=c1c(-c2ccc(F)cc2)c[nH]n1-c1ncccn1` [Example 83], with 75 µg/mL (≈ 293 µM).

In the next test the test system is Lentinus tigrinus. Nature of the test: MIC on fungi in agar. The note with it: 336 h.
Protocol: as §1
Compound `O=c1c(-c2ccccc2)c[nH]n1-c1ccccn1` [Example 4, 1-pyrid-2-yl-4-phenyl-pyrazolin-5-one] displayed an MIC of 75 µg/mL (≈ 316 µM).
Same read-out and setting: the result for `Cc1ccccc1-c1c[nH]n(-c2ccccn2)c1=O` [Example 21] reads 50 µg/mL (≈ 199 µM); that for `Cc1ccc(-c2c[nH]n(-c3ccccn3)c2=O)cc1` [Example 23], 75 µg/mL (≈ 298 µM).
`O=c1c(-c2ccc(F)cc2)c[nH]n1-c1ncccn1` [Example 83] came in with an MIC of 50 µg/mL (≈ 195 µM).

A further test concerns slime organisms. As to the kind of experiment: Action against slime organisms in Allen's nutrient solution (MIC). Particulars: 504 h.
Protocol: Substances according to the invention, dissolved in a small amount of acetone, are used in concentrations of, in each case, 0.1 to 100 mg/l in Allen's nutrient solution (Arch. Mikrobiol. 17, 34 to 53 (1952)), which contains, in 4 l of sterile water, 0.2 g of ammonium chloride, 4.0 g of sodium nitrate, 1.0 g of dipotassium hydrogen phosphate, 0.2 g of calcium chloride, 2.05 g of magnesium sulphate, 0.02 g of iron chloride and 1% of caprolactam. Shortly beforehand, the nutrient solution is infected with slime organisms (approx. 10^6 organisms/ml) which have been isolated from the spinning water circulations used in the manufacture of polyamide.
Compound `O=c1c(-c2ccccc2)c[nH]n1-c1ccccn1` [Example 4, 1-pyrid-2-yl-4-phenyl-pyrazolin-5-one] showed an MIC of 15 µg/mL (≈ 63.2 µM).
On the same count and under the same terms, then `Cc1ccc(-c2c[nH]n(-c3ccccn3)c2=O)cc1` [Example 23], with 7.5 µg/mL (≈ 29.8 µM).
On the same count and under the same terms, the result for `O=c1c(-c2ccc(F)cc2)c[nH]n1-c1ncccn1` [Example 83] reads 35 µg/mL (≈ 137 µM).

The subject of a further test is Coniophora puteana. As to the kind of experiment: MIC on fungi in agar. Particulars: 336 h.
Protocol: as §1
Compound `O=c1c(-c2ccccc2)c[nH]n1-c1ccccn1` [Example 4, 1-pyrid-2-yl-4-phenyl-pyrazolin-5-one] returned an MIC of 5 µg/mL (≈ 21.1 µM).
In turn, `Cc1ccccc1-c1c[nH]n(-c2ccccn2)c1=O` [Example 21] showed an MIC of 5 µg/mL (≈ 19.9 µM).
On the same count and under the same terms, then `Cc1ccc(-c2c[nH]n(-c3ccccn3)c2=O)cc1` [Example 23], with 35 µg/mL (≈ 139 µM).
In turn, `O=c1c(-c2ccc(F)cc2)c[nH]n1-c1ncccn1` [Example 83] yielded an MIC of 5 µg/mL (≈ 19.5 µM).

For a further test, the system named is Penicillium glaucum. Nature of the test: MIC on fungi in agar. The note with it: 336 h.
Protocol: as §1
On to `O=c1c(-c2ccccc2)c[nH]n1-c1ccccn1` [Example 4, 1-pyrid-2-yl-4-phenyl-pyrazolin-5-one], for which 10 µg/mL (≈ 42.1 µM) was the least that counted as inhibitory (MIC).
Still for that read-out and setting: then `Cc1ccccc1-c1c[nH]n(-c2ccccn2)c1=O` [Example 21], with 7.5 µg/mL (≈ 29.8 µM).
Still for that read-out and setting: then `Cc1ccc(-c2c[nH]n(-c3ccccn3)c2=O)cc1` [Example 23], with 5 µg/mL (≈ 19.9 µM); and `O=c1c(-c2ccc(F)cc2)c[nH]n1-c1ncccn1` [Example 83], with 20 µg/mL (≈ 78.1 µM).

The next test has as its system Chaetomium globosum. As to the kind of experiment: MIC on fungi in agar. Particulars: 336 h.
Protocol: as §1
Compound `O=c1c(-c2ccccc2)c[nH]n1-c1ccccn1` [Example 4, 1-pyrid-2-yl-4-phenyl-pyrazolin-5-one] had an MIC of 1.5 µg/mL (≈ 6.32 µM).
Same read-out and setting: then `Cc1ccccc1-c1c[nH]n(-c2ccccn2)c1=O` [Example 21], with 0.75 µg/mL (≈ 2.98 µM).
For the compound `Cc1ccc(-c2c[nH]n(-c3ccccn3)c2=O)cc1` [Example 23], the lowest concentration to inhibit growth (MIC) was 0.5 µg/mL (≈ 1.99 µM).
Still for that read-out and setting: then `O=c1c(-c2ccc(F)cc2)c[nH]n1-c1ncccn1` [Example 83], with 3.5 µg/mL (≈ 13.7 µM).

The subject of the next test is Alternaria tenuis. As to the kind of experiment: MIC on fungi in agar. The note with it: Alternaria alternata, 336 h.
Protocol: as §1
In the case of `O=c1c(-c2ccccc2)c[nH]n1-c1ccccn1` [Example 4, 1-pyrid-2-yl-4-phenyl-pyrazolin-5-one], the MIC worked out at 50 µg/mL (≈ 211 µM).
Same read-out and setting: the result for `Cc1ccccc1-c1c[nH]n(-c2ccccn2)c1=O` [Example 21] reads 10 µg/mL (≈ 39.8 µM).
On the same count and under the same terms, then `Cc1ccc(-c2c[nH]n(-c3ccccn3)c2=O)cc1` [Example 23], with 75 µg/mL (≈ 298 µM).
As for `O=c1c(-c2ccc(F)cc2)c[nH]n1-c1ncccn1` [Example 83], the MIC was 50 µg/mL (≈ 195 µM).

The subject of another test is Aureobasidium pullulans. As to the kind of experiment: MIC on fungi in agar. The note with it: 336 h.
Protocol: as §1
Take `O=c1c(-c2ccccc2)c[nH]n1-c1ccccn1` [Example 4, 1-pyrid-2-yl-4-phenyl-pyrazolin-5-one]: the lowest concentration to inhibit growth (MIC) was 100 µg/mL (≈ 421 µM).
Take `Cc1ccccc1-c1c[nH]n(-c2ccccn2)c1=O` [Example 21]: the MIC is 35 µg/mL (≈ 139 µM).
Same read-out and setting: the result for `Cc1ccc(-c2c[nH]n(-c3ccccn3)c2=O)cc1` [Example 23] reads 50 µg/mL (≈ 199 µM); that for `O=c1c(-c2ccc(F)cc2)c[nH]n1-c1ncccn1` [Example 83], 50 µg/mL (≈ 195 µM).

The test system of a further test is Pyricularia oryzae.
Test: not given
Particulars: rice, soil watered 7 days before inoculation, disease infestation 4 days after inoculation. In kind it is in vivo.
In the case of `Cc1ccccc1-c1c[nH]n(-c2ccccn2)c1=O` [Example 21], the systemic activity result was “clearly superior activity compared with the prior art”.
For the compound `O=c1c(-c2cc(C(F)(F)F)ccc2Cl)c[nH]n1-c1ncccn1` [Example 102], the systemic activity result is given as “clearly superior activity compared with the prior art”.

In another test the test system is Aspergillus niger. Nature of the test: MIC on fungi in agar. Particulars: 336 h.
Protocol: as §1
`O=c1c(-c2ccccc2)c[nH]n1-c1ccccn1` [Example 4, 1-pyrid-2-yl-4-phenyl-pyrazolin-5-one] showed an MIC of 7.5 µg/mL (≈ 31.6 µM).
The same measure, in the same setting: then `Cc1ccccc1-c1c[nH]n(-c2ccccn2)c1=O` [Example 21], with 7.5 µg/mL (≈ 29.8 µM); and `Cc1ccc(-c2c[nH]n(-c3ccccn3)c2=O)cc1` [Example 23], with 7.5 µg/mL (≈ 29.8 µM).
On the same count and under the same terms, then `O=c1c(-c2ccc(F)cc2)c[nH]n1-c1ncccn1` [Example 83], with 15 µg/mL (≈ 58.5 µM).
